The values that follow come from ChEMBL document CHEMBL1138010, “Discovery of highly potent, selective, orally bioavailable, metabotropic glutamate subtype 5 (mGlu5) receptor antagonists devoid of cytochrome P450 1A2 inhibitory activity” (Bioorg Med Chem Lett, 2004).

Molecules are shown by their SMILES.

Metabotropic glutamate receptor 5 (Rattus norvegicus), sequence (P31424 21-1203 limits assumed): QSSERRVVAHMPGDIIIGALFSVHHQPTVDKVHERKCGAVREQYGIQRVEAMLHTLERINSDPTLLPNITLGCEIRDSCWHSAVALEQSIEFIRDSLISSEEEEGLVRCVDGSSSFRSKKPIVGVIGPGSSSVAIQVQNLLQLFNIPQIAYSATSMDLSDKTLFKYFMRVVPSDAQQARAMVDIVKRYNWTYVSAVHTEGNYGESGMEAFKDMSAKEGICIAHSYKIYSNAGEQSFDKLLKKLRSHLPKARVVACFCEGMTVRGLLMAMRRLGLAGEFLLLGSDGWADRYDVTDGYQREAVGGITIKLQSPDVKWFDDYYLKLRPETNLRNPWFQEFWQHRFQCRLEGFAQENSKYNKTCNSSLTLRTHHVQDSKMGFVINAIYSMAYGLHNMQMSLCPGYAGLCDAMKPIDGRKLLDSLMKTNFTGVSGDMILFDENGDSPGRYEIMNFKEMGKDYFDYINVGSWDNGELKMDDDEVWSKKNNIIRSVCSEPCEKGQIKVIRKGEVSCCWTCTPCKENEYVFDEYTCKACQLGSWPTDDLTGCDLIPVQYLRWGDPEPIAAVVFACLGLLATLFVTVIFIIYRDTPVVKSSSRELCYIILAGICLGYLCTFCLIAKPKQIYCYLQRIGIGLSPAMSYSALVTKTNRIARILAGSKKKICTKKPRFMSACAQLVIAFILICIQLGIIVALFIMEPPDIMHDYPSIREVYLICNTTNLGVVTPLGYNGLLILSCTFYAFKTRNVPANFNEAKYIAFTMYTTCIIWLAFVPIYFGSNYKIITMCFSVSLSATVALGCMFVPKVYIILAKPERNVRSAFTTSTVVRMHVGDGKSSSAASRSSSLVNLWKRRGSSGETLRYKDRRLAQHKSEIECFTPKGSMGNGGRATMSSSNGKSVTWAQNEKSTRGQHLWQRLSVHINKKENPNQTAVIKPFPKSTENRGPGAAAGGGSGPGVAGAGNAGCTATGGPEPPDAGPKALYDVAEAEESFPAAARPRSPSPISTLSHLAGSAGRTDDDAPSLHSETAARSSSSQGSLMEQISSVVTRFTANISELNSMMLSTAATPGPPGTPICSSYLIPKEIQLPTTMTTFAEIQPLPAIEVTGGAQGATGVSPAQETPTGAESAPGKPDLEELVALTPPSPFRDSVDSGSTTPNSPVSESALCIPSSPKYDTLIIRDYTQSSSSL

The target in the first data set is T1, Cytochrome P450 1A2 (Homo sapiens, UniProt P05177).
T1 sequence (P05177 whole entry): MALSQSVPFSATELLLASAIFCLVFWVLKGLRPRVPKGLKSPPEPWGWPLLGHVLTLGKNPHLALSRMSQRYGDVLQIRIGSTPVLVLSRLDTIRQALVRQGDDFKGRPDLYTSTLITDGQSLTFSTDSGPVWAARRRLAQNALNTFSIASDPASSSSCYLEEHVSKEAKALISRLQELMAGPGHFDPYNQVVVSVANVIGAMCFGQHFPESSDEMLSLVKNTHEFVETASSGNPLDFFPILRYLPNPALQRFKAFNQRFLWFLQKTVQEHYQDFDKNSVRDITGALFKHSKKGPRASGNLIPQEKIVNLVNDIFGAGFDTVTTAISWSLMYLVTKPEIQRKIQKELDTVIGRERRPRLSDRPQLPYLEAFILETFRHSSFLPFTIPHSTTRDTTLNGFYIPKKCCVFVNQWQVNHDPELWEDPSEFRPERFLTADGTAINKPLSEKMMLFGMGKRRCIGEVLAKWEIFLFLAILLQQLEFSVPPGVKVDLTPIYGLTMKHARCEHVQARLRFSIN
Description: Antagonistic activity against recombinant cytochrome P450 1A2. As to conditions: recombinant enzyme. It counts as ADME.
For the compound `N#Cc1cc(F)cc(-n2nnc(-c3ccccn3)n2)c1`, the Activity was 2.3 µM.

On to `Cc1c[nH]c(-c2nnn(-c3cc(F)cc(C#N)c3)n2)n1`, for which the Activity was greater than 14 µM.

Take `N#Cc1cccc(-n2nnc(-c3cscn3)n2)c1`: the Activity worked out at 1.7 µM.

As for `N#Cc1cccc(-n2nnc(-c3ncc[nH]3)n2)c1`, the Activity was greater than 14 µM.

On to `Fc1cc(Oc2cccnc2)cc(-n2nnc(-c3ccccn3)n2)c1`, for which the Activity was 0.7 µM.

Turning to `Cc1ccncc1-c1cc(F)cc(-n2nnc(-c3ccccn3)n2)c1`, the Activity came to 0.5 µM.

As for `N#Cc1cccc(-n2nnc(-c3nccs3)n2)c1`, the Activity was found to be 1 µM.

On to `N#Cc1cc(F)cc(-n2nnc(-c3ncc[nH]3)n2)c1`, for which the Activity was greater than 14 µM.

Consider `Fc1cc(Oc2cccnc2)cc(-n2nnc(-c3ncc[nH]3)n2)c1`, for which the Activity came out at 5.1 µM.

Take `Cc1ccncc1-c1cc(F)cc(-n2nnc(-c3ncc[nH]3)n2)c1`: the Activity came out at 3.5 µM.

For `N#Cc1cccc(-n2nnc(-c3ccccn3)n2)c1`, the Activity was found to be 3.8 µM.

In a further data set the target is Metabotropic glutamate receptor 5 (Rattus norvegicus, UniProt P31424). Description: Binding affinity towards Metabotropic glutamate receptor was determined by displacing [3H]3-methoxy-5-(pyridin-2-ylethynyl)pyridine from rat cortical membranes.
Metabotropic glutamate receptor 5, sequence (P31424 whole entry): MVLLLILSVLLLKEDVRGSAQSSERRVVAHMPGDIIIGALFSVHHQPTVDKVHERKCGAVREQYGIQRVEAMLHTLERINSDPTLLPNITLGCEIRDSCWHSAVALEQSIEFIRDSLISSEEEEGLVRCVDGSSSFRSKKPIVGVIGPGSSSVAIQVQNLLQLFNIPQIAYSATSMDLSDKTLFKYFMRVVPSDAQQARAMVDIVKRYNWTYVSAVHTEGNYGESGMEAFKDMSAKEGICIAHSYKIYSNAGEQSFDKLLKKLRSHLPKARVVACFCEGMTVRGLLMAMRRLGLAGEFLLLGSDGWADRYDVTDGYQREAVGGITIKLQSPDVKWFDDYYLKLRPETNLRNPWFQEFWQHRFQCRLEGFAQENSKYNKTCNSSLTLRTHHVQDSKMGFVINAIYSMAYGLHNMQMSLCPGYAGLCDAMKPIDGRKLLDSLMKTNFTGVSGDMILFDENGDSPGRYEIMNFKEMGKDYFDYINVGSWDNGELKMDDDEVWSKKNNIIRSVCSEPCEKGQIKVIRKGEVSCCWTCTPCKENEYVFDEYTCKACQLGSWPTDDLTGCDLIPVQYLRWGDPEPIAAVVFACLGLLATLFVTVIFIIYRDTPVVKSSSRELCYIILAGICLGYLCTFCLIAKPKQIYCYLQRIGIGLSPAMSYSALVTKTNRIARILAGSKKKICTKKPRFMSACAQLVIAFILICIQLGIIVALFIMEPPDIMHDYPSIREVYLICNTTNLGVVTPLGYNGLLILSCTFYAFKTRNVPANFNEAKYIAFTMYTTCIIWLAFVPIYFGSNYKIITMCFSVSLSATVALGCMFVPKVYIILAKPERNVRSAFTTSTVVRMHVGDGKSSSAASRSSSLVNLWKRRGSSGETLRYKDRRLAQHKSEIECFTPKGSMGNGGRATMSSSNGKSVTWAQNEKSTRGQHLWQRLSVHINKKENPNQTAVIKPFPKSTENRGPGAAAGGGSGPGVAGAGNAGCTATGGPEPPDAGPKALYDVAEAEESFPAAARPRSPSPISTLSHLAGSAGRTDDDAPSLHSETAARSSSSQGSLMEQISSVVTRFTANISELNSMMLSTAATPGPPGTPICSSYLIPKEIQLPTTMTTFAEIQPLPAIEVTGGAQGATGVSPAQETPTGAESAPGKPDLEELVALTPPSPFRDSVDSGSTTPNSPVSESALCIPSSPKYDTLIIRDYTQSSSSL
Conditions: not given
What is called Ki is a dissociation constant, usually derived from enzyme kinetics or from competition with a known ligand. A high value points to weaker binding. The compound `N#Cc1cccc(-n2nnc(-c3c[nH]cn3)n2)c1` gave an inhibition constant (Ki) greater than 2000 nM.

`Cc1c[nH]c(-c2nnn(-c3cc(F)cc(C#N)c3)n2)n1` displayed a Ki of 19 nM.

The compound `N#Cc1cccc(-n2nnc(-c3cscn3)n2)c1` displayed a Ki of 157 nM.

The compound `N#Cc1cccc(-n2nnc(-c3ncc[nH]3)n2)c1` gave an inhibitory constant (Ki) of 34 nM.

Consider `Cc1ccncc1-c1cc(F)cc(-n2nnc(-c3ccccn3)n2)c1`, for which the inhibitory constant (Ki) is 1.8 nM.

For the compound `N#Cc1cccc(-n2nnc(-c3nccs3)n2)c1`, affinity was put at a Ki of 183 nM.

`N#Cc1cc(F)cc(-n2nnc(-c3ncc[nH]3)n2)c1` showed a Ki of 9.3 nM.

For `N#Cc1cccc(-n2nnc(-c3cc[nH]n3)n2)c1`, the inhibitory constant (Ki) is greater than 2000 nM.

Regarding `Fc1cc(Oc2cccnc2)cc(-n2nnc(-c3ncc[nH]3)n2)c1`, the Ki stood at 3.2 nM.

As to `Cc1ccncc1-c1cc(F)cc(-n2nnc(-c3ncc[nH]3)n2)c1`, the affinity, expressed as Ki, was 3.5 nM.

`N#Cc1cccc(-n2nnc(-c3ccccn3)n2)c1` displayed an inhibition constant (Ki) of 102 nM.

Test system in another data set: not listed separately
Description: Volume of distribution after dosing 2 mg/kg iv and 10 mg/kg po. Type of data set: ADME, organism-based. As to conditions: rat, in vivo.
`N#Cc1cc(F)cc(-n2nnc(-c3ccccn3)n2)c1` registered a Vd of 1.1 L/kg.

The target of another data set is Cytochrome P450 3A4 (Homo sapiens, UniProt P08684). Nature of the data set: Antagonistic activity against recombinant cytochrome P450 3A4. It counts as ADME. As to conditions: recombinant enzyme.
Cytochrome P450 3A4, sequence (P08684 whole entry): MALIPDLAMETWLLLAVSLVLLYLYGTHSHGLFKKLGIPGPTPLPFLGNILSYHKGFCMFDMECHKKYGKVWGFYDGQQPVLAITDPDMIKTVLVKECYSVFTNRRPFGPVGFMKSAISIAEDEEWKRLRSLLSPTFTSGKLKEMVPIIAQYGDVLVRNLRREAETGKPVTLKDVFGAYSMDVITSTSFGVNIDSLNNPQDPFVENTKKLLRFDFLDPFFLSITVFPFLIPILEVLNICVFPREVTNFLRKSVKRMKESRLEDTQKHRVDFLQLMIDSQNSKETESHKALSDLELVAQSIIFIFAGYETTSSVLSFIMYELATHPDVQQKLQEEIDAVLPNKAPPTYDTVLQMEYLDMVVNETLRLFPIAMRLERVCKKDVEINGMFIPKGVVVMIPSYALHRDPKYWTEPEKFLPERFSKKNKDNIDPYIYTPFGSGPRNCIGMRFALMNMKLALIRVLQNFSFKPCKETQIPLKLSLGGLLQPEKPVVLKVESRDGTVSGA
With `N#Cc1cc(F)cc(-n2nnc(-c3ccccn3)n2)c1`, the Activity is greater than 14 µM.

Regarding `Cc1c[nH]c(-c2nnn(-c3cc(F)cc(C#N)c3)n2)n1`, the Activity was greater than 14 µM.

Test system in a further data set: not listed separately
Nature of the data set: Oral bioavailability. As to conditions: rat, in vivo. Type of data set: ADME, organism-based.
The term bioavailability denotes dose-corrected exposure relative to a reference, in per cent. High values mean good availability, low ones poor availability. In turn, `Cc1c[nH]c(-c2nnn(-c3cc(F)cc(C#N)c3)n2)n1` gave a bioavailability of 22%.

Test system in the next data set: not listed separately
Description: Half life was determined. Type of data set: ADME. The following applies: rat.
The term half-life denotes the time in which the quantity being followed falls by half. The low end stands for fast loss, the high end for slow loss. Consider `Cc1c[nH]c(-c2nnn(-c3cc(F)cc(C#N)c3)n2)n1`, for which the half-life was 18 min.

A further data set addresses Metabotropic glutamate receptor 5 (Rattus norvegicus) (UniProt P31424). Nature of the data set: Antagonistic activity against Metabotropic glutamate receptor 5 in [Ca2+] flux assay using glutamate (10 uM) as agonist. Type of data set: functional.
Conditions: not given
Compound `N#Cc1cc(F)cc(-n2nnc(-c3ccccn3)n2)c1` had an Activity of 3.9 nM.

`N#Cc1cccc(-n2nnc(-c3c[nH]cn3)n2)c1` yielded an Activity greater than 2000 nM.

In the case of `Cc1c[nH]c(-c2nnn(-c3cc(F)cc(C#N)c3)n2)n1`, the Activity is 77 nM.

`N#Cc1cccc(-n2nnc(-c3cscn3)n2)c1`: the Activity came out at 148 nM.

In the case of `N#Cc1cccc(-n2nnc(-c3ncc[nH]3)n2)c1`, the Activity is 77 nM.

The compound `Fc1cc(Oc2cccnc2)cc(-n2nnc(-c3ccccn3)n2)c1` registered an Activity of 6.7 nM.

The compound `Cc1ccncc1-c1cc(F)cc(-n2nnc(-c3ccccn3)n2)c1` displayed an Activity of 5.2 nM.

As for `N#Cc1cccc(-n2nnc(-c3nccs3)n2)c1`, the Activity was determined as 142 nM.

Regarding `N#Cc1cc(F)cc(-n2nnc(-c3ncc[nH]3)n2)c1`, the Activity was 47 nM.

`N#Cc1cccc(-n2nnc(-c3cc[nH]n3)n2)c1` registered an Activity greater than 2000 nM.

Regarding `Fc1cc(Oc2cccnc2)cc(-n2nnc(-c3ncc[nH]3)n2)c1`, the Activity turned out to be 9.7 nM.

For the compound `Cc1ccncc1-c1cc(F)cc(-n2nnc(-c3ncc[nH]3)n2)c1`, the Activity worked out at 20 nM.

Consider `N#Cc1cccc(-n2nnc(-c3ccccn3)n2)c1`, for which the Activity stood at 73 nM.

Test system in a further data set: not listed separately
Nature of the data set: Volume of distribution was determined. Type of data set: ADME, organism-based. The following applies: rat, in vivo.
As to `Cc1c[nH]c(-c2nnn(-c3cc(F)cc(C#N)c3)n2)n1`, the Vd stood at 0.6 L/kg.

Test system in another data set: not listed separately
Nature of the data set: Plasma clearance was determined. It counts as ADME, organism-based. As to conditions: rat.
The compound `Cc1c[nH]c(-c2nnn(-c3cc(F)cc(C#N)c3)n2)n1` gave a clearance of 40 mL/min/kg.

For a further data set, the target named is Cytochrome P450 2C9 (Homo sapiens, UniProt P11712). Nature of the data set: Antagonistic activity against recombinant cytochrome P450 2C9. It counts as ADME. As to conditions: recombinant enzyme.
Cytochrome P450 2C9, sequence (P11712 whole entry): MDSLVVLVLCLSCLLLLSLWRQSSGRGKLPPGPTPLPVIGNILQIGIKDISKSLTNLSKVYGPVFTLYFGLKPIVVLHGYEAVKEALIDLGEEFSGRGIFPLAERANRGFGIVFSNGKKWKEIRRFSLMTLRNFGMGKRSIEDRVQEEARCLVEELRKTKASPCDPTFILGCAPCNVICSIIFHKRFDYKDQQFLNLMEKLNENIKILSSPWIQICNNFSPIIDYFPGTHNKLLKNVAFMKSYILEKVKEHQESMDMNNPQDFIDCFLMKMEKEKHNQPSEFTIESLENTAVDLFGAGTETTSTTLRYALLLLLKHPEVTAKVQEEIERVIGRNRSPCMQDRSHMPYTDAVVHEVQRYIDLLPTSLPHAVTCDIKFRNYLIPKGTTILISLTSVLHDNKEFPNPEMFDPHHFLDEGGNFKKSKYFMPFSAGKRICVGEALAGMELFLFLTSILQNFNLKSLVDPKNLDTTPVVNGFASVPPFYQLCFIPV
Turning to `N#Cc1cc(F)cc(-n2nnc(-c3ccccn3)n2)c1`, the Activity is greater than 14 µM.

For the compound `Cc1c[nH]c(-c2nnn(-c3cc(F)cc(C#N)c3)n2)n1`, the Activity was greater than 14 µM.

Test system in a further data set: not listed separately
Description: Area under the curve after dosing 2 mg/kg iv and 10 mg/kg po. It counts as ADME, organism-based. The following applies: rat, in vivo.
What is called AUC is concentration integrated over time. Low values mean low exposure, high ones high exposure. `N#Cc1cc(F)cc(-n2nnc(-c3ccccn3)n2)c1` returned an AUC of 9.6 µM·h.

The test system of the next data set is Rattus norvegicus. Description: Concentration in rat brain measured at 1 hr post-administration of 10 mg/kg ip. Type of data set: functional, organism-based. Set-up: dose 10 mg/kg.
Conditions: not given
The compound `N#Cc1cc(F)cc(-n2nnc(-c3ccccn3)n2)c1` registered a Concentration of 9.7 µM.

In turn, `Cc1c[nH]c(-c2nnn(-c3cc(F)cc(C#N)c3)n2)n1` showed a Concentration of 8.1 µM.

For the next data set, the target named is Cytochrome P450 2D6 (Homo sapiens, UniProt P10635). Nature of the data set: Antagonistic activity against recombinant cytochrome P450 2D6. It counts as ADME. The following applies: recombinant enzyme.
Cytochrome P450 2D6, sequence (P10635 whole entry): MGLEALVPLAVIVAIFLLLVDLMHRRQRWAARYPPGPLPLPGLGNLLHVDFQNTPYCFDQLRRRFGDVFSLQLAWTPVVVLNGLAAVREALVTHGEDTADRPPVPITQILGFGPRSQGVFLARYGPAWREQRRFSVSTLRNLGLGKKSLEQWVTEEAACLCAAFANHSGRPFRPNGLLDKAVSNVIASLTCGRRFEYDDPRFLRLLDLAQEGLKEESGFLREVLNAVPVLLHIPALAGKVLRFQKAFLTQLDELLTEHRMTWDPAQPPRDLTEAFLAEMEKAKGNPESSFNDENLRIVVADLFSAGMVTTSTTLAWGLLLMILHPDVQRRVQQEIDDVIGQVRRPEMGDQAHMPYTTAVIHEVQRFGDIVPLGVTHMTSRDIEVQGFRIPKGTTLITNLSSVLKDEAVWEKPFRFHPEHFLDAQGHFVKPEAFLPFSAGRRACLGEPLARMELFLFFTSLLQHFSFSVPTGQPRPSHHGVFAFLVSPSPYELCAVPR
For `N#Cc1cc(F)cc(-n2nnc(-c3ccccn3)n2)c1`, the Activity was greater than 14 µM.

Turning to `Cc1c[nH]c(-c2nnn(-c3cc(F)cc(C#N)c3)n2)n1`, the Activity was greater than 14 µM.

Test system in another data set: not listed separately
Description: Area under the curve was determined. It counts as ADME. As to conditions: rat.
In the case of `Cc1c[nH]c(-c2nnn(-c3cc(F)cc(C#N)c3)n2)n1`, the AUC is 3.4 µM·h.

Another data set deals with Cytochrome P450 2C19 (Homo sapiens, UniProt P33261). Description: Antagonistic activity against recombinant cytochrome P450 2C19. It counts as ADME. The following applies: recombinant enzyme.
Cytochrome P450 2C19, sequence (P33261 whole entry): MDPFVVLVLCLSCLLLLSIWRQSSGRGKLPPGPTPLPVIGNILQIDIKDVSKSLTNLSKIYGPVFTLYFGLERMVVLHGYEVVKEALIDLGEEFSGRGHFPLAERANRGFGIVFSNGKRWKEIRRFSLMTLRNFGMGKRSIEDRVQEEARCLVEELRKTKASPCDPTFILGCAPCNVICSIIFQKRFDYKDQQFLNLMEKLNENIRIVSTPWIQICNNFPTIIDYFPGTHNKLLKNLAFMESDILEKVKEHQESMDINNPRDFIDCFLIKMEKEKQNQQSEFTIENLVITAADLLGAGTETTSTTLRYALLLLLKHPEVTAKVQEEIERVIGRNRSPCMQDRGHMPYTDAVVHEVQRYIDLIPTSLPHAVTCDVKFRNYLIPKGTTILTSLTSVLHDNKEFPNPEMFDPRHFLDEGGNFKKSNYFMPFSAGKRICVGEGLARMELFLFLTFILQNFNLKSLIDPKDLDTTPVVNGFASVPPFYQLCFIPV
In the case of `N#Cc1cc(F)cc(-n2nnc(-c3ccccn3)n2)c1`, the Activity is greater than 14 µM.

As for `Cc1c[nH]c(-c2nnn(-c3cc(F)cc(C#N)c3)n2)n1`, the Activity is greater than 14 µM.

Test system in the next data set: not listed separately
Nature of the data set: Oral bioavailability after dosing 2 mg/kg iv and 10 mg/kg po. Type of data set: ADME, organism-based. The following applies: rat, in vivo.
Turning to `N#Cc1cc(F)cc(-n2nnc(-c3ccccn3)n2)c1`, the bioavailability is 24%.

A further data set has as its target Metabotropic glutamate receptor 5 (Rattus norvegicus) (UniProt P31424). Description: Percent occupancy of the Metabotropic glutamate receptor 5 by the [3H]3-methoxy-5-(pyridin-2-ylethynyl)pyridine ligand 1 hr post-administration of 10 mg/kg compound ip. Type of data set: organism-based. Set-up: dose 10 mg/kg.
Conditions: not given
With `Cc1c[nH]c(-c2nnn(-c3cc(F)cc(C#N)c3)n2)n1`, the Occupancy turned out to be 97%.

For `Fc1cc(Oc2cccnc2)cc(-n2nnc(-c3ccccn3)n2)c1`, the Occupancy turned out to be 90%.

`Cc1ccncc1-c1cc(F)cc(-n2nnc(-c3ccccn3)n2)c1` displayed an Occupancy of 95%.

Consider `N#Cc1cc(F)cc(-n2nnc(-c3ncc[nH]3)n2)c1`, for which the Occupancy was determined as 95%.

The compound `Fc1cc(Oc2cccnc2)cc(-n2nnc(-c3ncc[nH]3)n2)c1` yielded an Occupancy of 69%.

The compound `Cc1ccncc1-c1cc(F)cc(-n2nnc(-c3ncc[nH]3)n2)c1` gave an Occupancy of 29%.

Take `N#Cc1cccc(-n2nnc(-c3ccccn3)n2)c1`: the Occupancy was determined as 90%.

Test system in another data set: not listed separately
Description: Plasma clearance after dosing 2 mg/kg iv and 10 mg/kg po. It counts as ADME, organism-based. As to conditions: rat.
Compound `N#Cc1cc(F)cc(-n2nnc(-c3ccccn3)n2)c1` gave a clearance of 15 mL/min/kg.
